Laboratory results: patent publication US5378846A, “1,2,3,4-tetrahydropyrrolo-[1,2-a]-pyrazine derivatives” (Russian-American Institute For New Drug Development, priority 1993, dated 1995)
Several values for one entry are separate records, joined by “and”; a condition that tells them apart may be missing. Equal entries are not always repeated.

Key:
[1] = tested on: rat behavior in Vogel conflict test; assay: Vogel conflict test (anxiolytic activity, punished responses in water-deprived rats); format: in vivo, outbred male albino rats; details: rat
Description: Compounds according to the present invention were checked for their anxiolytic activity. Behaviour suppressed by punishment is a very reliable indicator of the anxiolytic activity of drugs. A variant of the conflict situation test was used to reveal anxiety in water-deprived rats whose licking was suppressed by shock (see Vogel et al., Phychopharmacologia, 21, 1-7 (1971); J. E. Barrett in Animal Models in Psychopharmacology, Advances in Pharmacological Sciences, 1991; and Birkhauser Verlag, Basel, p. 37.52, Molodavkin et al., Exper. Clin. Pharmacol., 56, (1993), which are incorporated herein by reference).
The experiments were carried out using outbred male albino rats (180-220 g). This experiment involved previous training of water-deprived rats to drink water from a trough. Next day electrical stimulation was given delivering 0.5 mA electric shocks through the trough and metal grid floor of the experimental chamber. A conflict situation was created by clashing motivations (survival and self defense). The degree of anxiolytic activity was estimated by the measurement of the amount of punished licks for 10 min. Each compound was administered intraperitoneally 45 min. before the conflict test.

[2] = tested on: locomotor activity in mice; assay: Locomotor activity in mice (actometer); format: in vivo, outbred male mice; details: i.p.
Description: (§1) Compounds according to the present invention were checked for their influence on gross behaviour. The experiments described herein (Examples 11, 12, 13, 14, and 15) were carried out using outbred male mice weighing approximately 18-24 g. Each substance was administered intraperitoneally 45 min. before the experiment. Locomotor activity was estimated individually for each animal for 3 min. using an actometer `Era-1` (Russia).

[3] = Acute toxicity in mice; details: mouse, in vivo, ip, mice, i.p., lethality 24 hours later, Table 6 (range in brackets beside); read-out: LD50
Description: as §1
The compounds of the present invention were checked for acute toxicity in outbred male mice (18-22 g.). They were administered intraperitoneally and the lethality was estimated 24 hours later (Table 6). In the dose range of 500-1000 mg/kg i.p. Compound 1 caused death in 50% of the animals. Compound 1 is almost 5 times less toxic than other compounds.

[4] = tested on: duration of immobility in mice; assay: Behavioural despair test (forced swimming); format: in vivo, outbred male mice; details: for Influence on duration of immobility, in words: forced swimming; for The duration of immobility: i.p.
Description: as §1
The influence of compounds on behavioral despair was studied according to the model described by Porsolt et al., Arch. int. pharmacodyn.et ther., 228, 327-[…] (1977), which is incorporated herein by reference. Mice, when forced to swim in a cylinder of water without the possibility of escape, rapidly adopt a characteristic immobile posture. […] The only movements they make are those necessary to keep their heads above water.

[5] = tested on: memory formation in rats; assay: Passive avoidance test, step-through (memory formation, retention); format: in vivo, outbred male albino rats; details: rat, 5.0 mg/kg i.p., retention 24 hours later, 3 min
Description: The influence of Compound 1 on memory formation was studied in a passive avoidance test, step-through paradigm (equipment of Laffaette Co., USA). The experiments were carried out on outbred male albino rats ([…]). Compound 1 and other drugs were administered intraperitoneally 45 min. before the passive avoidance training. The retention was tested 24 hours later learning (painful electroshock in the dark compartment) by the measurement of the time spent in the dark compartment for 3 min.

[6] = tested on: motor behavior in mice; assay: Horizontal wire test (coordination of movements and myorelaxation); details: mice
Description: (§2) The influence of Compound 1 on the motor behavior was studied according to a "rotating rod" test and a "horizontal wire" test in outbred male mice (18-22 g). A rotating rod (2 cm diameter and 5 rpm speed) was used. Acquisition was defined as the ability to remain on the rotating rod for 2 min. Each animal had two trials. According to the "horizontal wire" test a mouse was hung on the wire (0.3 cm. diameter, wire was fixed horizontally 40 cm above the floor) by the forepaws. The ability to pull the hind legs up to the wire for 2 min. was a criterion of test performance.

[7] = tested on: aggressive behavior in mice; assay: Antiaggressive activity (threshold of aggressive behavior, electrified floor); format: in vivo, outbred male mice
Description: as §1
The effect of Compound 1 on the threshold of the aggressive behavior was determined in the experiment on outbred mice (R. Tedesci et al., J. Pharmacol. Exp. Ther., 125, 28-34, (1959), which is incorporated herein by reference). The paired mice were placed on the electrified floor. The strength of the current, which provoked the fighting, was recorded.

[8] = Rotating rod test (coordination of movements and myorelaxation); details: mouse, in vivo
Description: as §2

[9] = tested on: motor behavior in mice; assay: as above; details: mice
Description: as §2

[10] = Horizontal wire test (coordination of movements and myorelaxation); details: mouse, in vivo
Description: as §2

[11] = 2.0 mg/kg i.p., 45 min before test, Table 1

Row | Structure (SMILES) | The number of punished responses [1, 11] | Influence on locomotor activity, in words [2] | The number of movements for 3 min., horizontal activity ([2]; 10.0 mg/kg) | The number of movements for 3 min., vertical activity ([2]; 10.0 mg/kg) | The number of movements for 3 min., horizontal activity ([2]; 20.0 mg/kg) | The number of movements for 3 min., vertical activity ([2]; 20.0 mg/kg) | LD50 at 24 h [3] | Influence on duration of immobility, in words [4] | The duration of immobility ([4]; 10.0 mg/kg) | The duration of immobility ([4]; 20.0 mg/kg) | other results
1 | O=C(O)C(=O)O.O=C(c1ccccc1)N1CCn2c(CN3CCOCC3)ccc2C1 [Compound 7, 2-Benzoyl-6-(Morpholinomethyl)-1,2,3,4-Tetrahydropyrrolo-[1,2-a]-Pyrazine Hydrooxalate] | 25.00 ± 5.99 | decrease locomotor activity | 475.1 ± 11.2 | 13.7 ± 2.5 | 474.0 ± 14.7 | 12.4 ± 3.8 | 115 mg/kg | did not show any activity | 169.3 ± 11.8 s | 147.8 ± 7.1 s | –
2 | CC(=O)N1CCn2c(CN(C)C)ccc2C1 [Compound 2, hydrooxalate of 2-acetyl-6-(dimethylaminomethyl)-1,2,3,4-tetrahydropyrrolo-[1,2-a]-pyrazine] | 63.00 ± 35.38 | decrease locomotor activity | 524.4 ± 36.9 | 10.0 ± 2.1 | 489.1 ± 9.7 | 22.4 ± 3.0 | 340 mg/kg | increased the duration of immobility | 203.4 ± 14.1 s | 234.9 ± 12.6 s | –
3 | CN1C(=O)CN=C(c2ccccc2)c2cc(Cl)ccc21 [Diazepam, reference compound] | – | – | – | – | – | – | – | – | – | – | The number of punished responses ([1]; i.p., dose 1.0 mg/kg, Table 2): 22.25 ± 10.89; The number of punished responses ([1]; i.p., dose 2.0 mg/kg, Table 2): 47.25 ± 22.49; The time spent in dark compartment [5]: 127.7 ± 21.1 s; The time spent in light compartment [5]: 52.3 ± 11.3 s; Disturbances according to horizontal wire test, effect in % ([6]; dose 1.0): 20%; Disturbances according to horizontal wire test, effect in % ([6]; dose 2.0): 40%; Disturbances according to horizontal wire test, effect in % ([6]; dose 5.0): 80%; Aggression threshold ([7]; 1.0 mg/kg i.p.): 45.4 ± 9.5 V; Aggression threshold ([7]; 5.0 mg/kg i.p.): 92.4 ± 15.6 V
4 | CN1CCN=C(c2ccccc2)c2cc(Cl)ccc21 [Medazepam, reference compound] | – | – | – | – | – | – | – | – | – | – | TD50 [8]: 5.2 mg/kg; Disturbances according to rotating rod test, effect in % ([9]; dose 2.5): 40%; Disturbances according to rotating rod test, effect in % ([9]; dose 5.0): 50%; Disturbances according to rotating rod test, effect in % ([9]; dose 10.0): 96%; The time spent in dark compartment [5]: 142.6 ± 19.58 s; The time spent in light compartment [5]: 37.4 ± 19.5 s; TD50 [10]: 7.5 mg/kg; Disturbances according to horizontal wire test, effect in % ([6]; dose 2.5): 33%; Disturbances according to horizontal wire test, effect in % ([6]; dose 5.0): 50%; Disturbances according to horizontal wire test, effect in % ([6]; dose 10.0): 75%; Aggression threshold ([7]; 5.0 mg/kg i.p.): 32.2 ± 5.25 V; Aggression threshold ([7]; 10.0 mg/kg i.p.): 43.1 ± 4.2 V
5 | CC(=O)N1CCn2c(CN3CCOCC3)ccc2C1 [Compound 4, 2-Acetyl-6-(Morpholinomethyl)-1,2,3,4-Tetrahydropyrrolo-[1,2-a]-Pyrazine] | 9.25 ± 1.75 | – | 479.6 ± 22.8 | 17.6 ± 6.9 | 564.5 ± 22.5 | 24.7 ± 5.6 | 105 mg/kg | did not show any activity | 197.3 ± 5.9 s | 202.7 ± 6.7 s | –
6 | O=C(O)C(=O)O.O=C(c1ccccc1)N1CCn2c(CN3CCCCC3)ccc2C1 [Compound 6, 2-Benzoyl-6-(Piperidinomethyl)-1,2,3,4-Tetrahydropyrrolo-[1,2-a]-Pyrazine Hydrooxalate] | 30.75 ± 13.17 | – | 693.0 ± 25.3 | 16.5 ± 6.2 | 644.0 ± 30.4 | 19.9 ± 3.4 | 389 mg/kg | reduced the duration of immobility | 201.7 ± 13.1 s | – | The duration of immobility ([4]; 1.0 mg/kg): 184.3 ± 11.7 s
7 | CN(C)Cc1ccc2n1CCN(C(=O)c1ccccc1)C2 [Compound 5, 2-Benzoyl-6-(Dimethylaminomethyl)-1,2,3,4-Tetrahydropyrrolo-[1,2-]-Pyrazine] | 85.25 ± 32.04 | – | 676.1 ± 34.5 | 36.1 ± 5.8 | 659.7 ± 32.7 | 36.6 ± 8.6 | 77 mg/kg | reduced the duration of immobility | 189.4 ± 10.3 s and 218.3 ± 12.1 s | 216.4 ± 14.2 s | –
8 | CC(=O)N1CCn2c(CN3CCCCC3)ccc2C1 [Compound 3, 2-Acetyl-6-(Piperidinomethyl)-1,2,3,4-Tetrahydropyrrolo-[1,2-]-Pyrazine] | 22.00 ± 4.86 | decrease locomotor activity | 532.5 ± 42.1 | 8.1 ± 1.9 | 442.7 ± 30.3 | 9.2 ± 4.4 | 414 mg/kg | increased the duration of immobility | 209.3 ± 6.5 s | 254.6 ± 10.9 s | –
